pEC50: −log10 of the molar value. Converted amounts (≈) assume the structure as drawn. Where two headings read alike, the source gives them in different places.
How the values were obtained:
[1] = tested on: h and r mGlu2-4,6-8; test: mGlu subtype selectivity; type: cell-based, human, rat; details: Table 1
[2] = Plasma protein binding (dog); type: in vitro ADME; details: pH 7.4, read-out: fu plasma (d)
Experimental: page 13: at half log concentrations in DMSO were further diluted in assay buffer. The compounds or DMSO vehicle were added to cells and incubated for 2.5 min and an EC20 concentration of glutamate was added and incubated for 1 min. An ECmax concentration of glutamate was also added to cells that were incubated with DMSO vehicle to accurately calculate the EC20 calcium response. Data were normalized by subtracting the basal florescent peak before EC20 agonist addition from the maximal peak elicited by EC20 agonist and PAMs. Using GraphPad Prism 5.0, the concentration response curves were generated and the potencies of the mGlu1 PAMs were determined. DMPK Methods Plasma protein binding: The protein binding of each compound was determined in plasma via equilibrium dialysis employing RED Plates (ThermoFisher Scientific, Rochester, NY). Plasma was added to the 96 well plate containing test compound and mixed thoroughly for a final concentration of 5 µM. Subsequently, an aliquot of the plasma-compound mixture was transferred to the cis chamber (red) of the RED plate, with an phosphate buffer (25 mM, pH 7.4) in the trans chamber. The RED plate was sealed and incubated for 4 hours at 37°C with shaking. […] The in vitro half-life (T 1/2, min, Eq. 1), intrinsic clearance (CLint, mL/min/kg, Eq. 2) and subsequent predicted hepatic clearance (CLhep, mL/min/kg, Eq. 3) was determined S13

[3] = Predicted hepatic clearance (dog); type: in vitro ADME
Experimental: at half log concentrations in DMSO were further diluted in assay buffer. The compounds or DMSO vehicle were added to cells and incubated for 2.5 min and an EC20 concentration of glutamate was added and incubated for 1 min. An ECmax concentration of glutamate was also added to cells that were incubated with DMSO vehicle to accurately calculate the EC20 calcium response. Data were normalized by subtracting the basal florescent peak before EC20 agonist addition from the maximal peak elicited by EC20 agonist and PAMs. Using GraphPad Prism 5.0, the concentration response curves were generated and the potencies of the mGlu1 PAMs were determined.
Plasma protein binding: The protein binding of each compound was determined in plasma via equilibrium dialysis employing RED Plates (ThermoFisher Scientific, Rochester, NY). Plasma was added to the 96 well plate containing test compound and mixed thoroughly for a final concentration of 5 µM. […]
Each compound was assayed in triplicate within the same 96-well plate. Fraction unbound was determined using the following equation […]
After a 5 min preincubation, the reaction was initiated by addition of NADPH (1 mM). […] The in vitro half-life (T 1/2, min, Eq. 1), intrinsic clearance (CLint, mL/min/kg, Eq. 2) and subsequent predicted hepatic clearance (CLhep, mL/min/kg, Eq. 3) was determined […]

[4] = Solubility in FASSGF and FASSIF; type: physicochemical
[5] = Rat tolerability in NOR and PO PK studies

## Cc1nc(C2CC2)ccc1CNC(=O)c1cc(-n2cccn2)ccc1Cl [compound 8]
[1]
  pEC50: < 5.00
[2]
  fraction unbound at 4 h, 5 µM: 0.099
[3]
  Predicted CLhep (d): 15.1 mL/min/kg
[4]; FASSGF, fassgf or other biorelevant, read-out: Solubility FASSGF
  solubility: 572 µg/mL (≈ 1560 µM)
[4]; FASSIF, read-out: Solubility FASSIF
  solubility: 23.6 µg/mL (≈ 64.3 µM)
[5]; rat PO
  adverse events at 6.2-fold rat EC50 free in brain: piloerection, slow movement, and reaction to stimuli
  duration of adverse events postdose: ~2 h
[5]; rat PO PK studies
  free brain concentration (fold rat EC50) that resulted in AEs: 6.2 fold
  free brain concentration that resulted in AEs: 664 nM

From PMC11843613, “Further Optimization of the mGlu1 PAM VU6024578/BI02982816: Discovery and Characterization of VU6033685” (ACS Chemical Neuroscience, 2025)
